Data set [1] has as its target UGT2B7 (Homo sapiens, UniProt P16662). The settings on record: Table 10.
Data set [2] deals with T1, CYP2A6 (Homo sapiens, UniProt P11509).
T1 sequence (P11509 1-494): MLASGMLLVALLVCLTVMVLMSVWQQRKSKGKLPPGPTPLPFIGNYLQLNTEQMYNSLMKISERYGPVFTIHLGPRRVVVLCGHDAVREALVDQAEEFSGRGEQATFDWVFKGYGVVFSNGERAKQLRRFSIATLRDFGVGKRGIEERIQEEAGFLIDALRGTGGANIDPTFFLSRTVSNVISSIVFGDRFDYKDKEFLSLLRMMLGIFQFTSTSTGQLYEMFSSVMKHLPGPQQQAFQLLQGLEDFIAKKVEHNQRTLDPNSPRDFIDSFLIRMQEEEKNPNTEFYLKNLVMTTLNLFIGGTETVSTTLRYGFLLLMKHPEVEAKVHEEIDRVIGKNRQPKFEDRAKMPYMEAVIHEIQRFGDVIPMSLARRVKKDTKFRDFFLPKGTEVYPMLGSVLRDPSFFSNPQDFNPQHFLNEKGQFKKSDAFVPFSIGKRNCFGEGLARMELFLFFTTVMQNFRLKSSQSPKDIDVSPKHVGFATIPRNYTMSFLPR
To be noted: read-out: IC50 against CYP2A6; Table 5, alkyne linker agents; pooled human liver microsomes, coumarin […]. A general note: Liver microsomes are a subcellular fraction often used to study metabolism.

The target of data set [3] is UGT1A4 (Homo sapiens, UniProt P22310). To be noted: Table 10.
Data set [4] deals with at least two (not named) of CYPs 1A2, 2B6, 2C8, 2C9, 2C19, 2D6, 2E1 and 3A4, relative to CYP2A6. As to the kind of experiment: in vitro. To be noted: human.
Data set [5] concerns the target T2, CYP2C8 (Homo sapiens, UniProt P10632).
T2 sequence (P10632 1-490): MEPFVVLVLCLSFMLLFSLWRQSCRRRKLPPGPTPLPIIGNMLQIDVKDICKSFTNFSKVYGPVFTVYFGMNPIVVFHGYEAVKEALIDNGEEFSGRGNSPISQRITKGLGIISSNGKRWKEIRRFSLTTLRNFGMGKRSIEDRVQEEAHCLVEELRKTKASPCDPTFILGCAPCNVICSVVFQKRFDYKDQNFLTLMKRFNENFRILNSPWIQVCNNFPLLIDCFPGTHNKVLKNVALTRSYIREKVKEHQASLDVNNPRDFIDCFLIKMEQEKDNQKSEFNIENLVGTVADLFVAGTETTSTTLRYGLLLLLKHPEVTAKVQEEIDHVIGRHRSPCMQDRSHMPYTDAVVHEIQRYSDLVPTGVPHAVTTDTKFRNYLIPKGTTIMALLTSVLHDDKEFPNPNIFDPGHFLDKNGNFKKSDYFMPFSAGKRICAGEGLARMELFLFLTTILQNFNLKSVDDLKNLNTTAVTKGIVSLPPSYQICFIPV
To be noted: Table 6.

The target in data set [6] is UGT1A1 (Homo sapiens, UniProt P22309). The settings on record: Table 10.
In data set [7] the target is UGT2B4 (Homo sapiens, UniProt P06133). The settings on record: Table 10.
Data set [8] has as its target T3, CYP2B6 (Homo sapiens, UniProt P20813).
T3 sequence (P20813 1-491): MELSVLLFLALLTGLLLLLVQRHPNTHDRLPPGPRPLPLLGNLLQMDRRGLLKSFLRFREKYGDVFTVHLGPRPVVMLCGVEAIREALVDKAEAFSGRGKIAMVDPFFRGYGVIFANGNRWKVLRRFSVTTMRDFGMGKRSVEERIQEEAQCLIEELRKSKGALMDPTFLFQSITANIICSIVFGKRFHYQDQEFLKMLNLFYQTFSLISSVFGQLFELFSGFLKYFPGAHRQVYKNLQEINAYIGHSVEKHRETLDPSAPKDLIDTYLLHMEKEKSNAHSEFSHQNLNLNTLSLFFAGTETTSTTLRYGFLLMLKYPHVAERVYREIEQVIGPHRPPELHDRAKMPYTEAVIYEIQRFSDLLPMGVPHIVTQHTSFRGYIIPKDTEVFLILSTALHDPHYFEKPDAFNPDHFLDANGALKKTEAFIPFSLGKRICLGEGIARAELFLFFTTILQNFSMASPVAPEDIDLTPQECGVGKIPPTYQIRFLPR
The settings on record: Table 6.

Data set [9] has as its target UGT2B17 (Homo sapiens, UniProt O75795). The settings on record: Table 10.
Data set [10] has as its target UGT2B15 (Homo sapiens, UniProt P54855). To be noted: Table 10.
Data set [11] deals with CYP2C9 (Homo sapiens, UniProt P11712). In words: CYP2C9 inhibition assay, human liver microsomes, diclofenac probe (cocktail). The settings on record: Table 6.
The target of data set [12] is T1, CYP2A6. As to the kind of experiment: biochemical. To be noted: IC50 against CYP2A6; human liver microsomes.
Data set [13] deals with CYP2E1 (Homo sapiens, UniProt P05181). To be noted: Table 6.
The target in data set [14] is UGT1A9 (Homo sapiens, UniProt O60656). To be noted: Table 10.
Data set [15] has as its target UGT1A6 (Homo sapiens, UniProt P19224). To be noted: Table 10.
The target of data set [16] is CYP2C19 (Homo sapiens, UniProt P33261). In words: CYP2C19 inhibition assay, human liver microsomes, omeprazole probe (cocktail). To be noted: Table 6.

Read-outs that look alike come from different tables or passages of the source.

Sequence of UGT2B17 (O75795 24-530): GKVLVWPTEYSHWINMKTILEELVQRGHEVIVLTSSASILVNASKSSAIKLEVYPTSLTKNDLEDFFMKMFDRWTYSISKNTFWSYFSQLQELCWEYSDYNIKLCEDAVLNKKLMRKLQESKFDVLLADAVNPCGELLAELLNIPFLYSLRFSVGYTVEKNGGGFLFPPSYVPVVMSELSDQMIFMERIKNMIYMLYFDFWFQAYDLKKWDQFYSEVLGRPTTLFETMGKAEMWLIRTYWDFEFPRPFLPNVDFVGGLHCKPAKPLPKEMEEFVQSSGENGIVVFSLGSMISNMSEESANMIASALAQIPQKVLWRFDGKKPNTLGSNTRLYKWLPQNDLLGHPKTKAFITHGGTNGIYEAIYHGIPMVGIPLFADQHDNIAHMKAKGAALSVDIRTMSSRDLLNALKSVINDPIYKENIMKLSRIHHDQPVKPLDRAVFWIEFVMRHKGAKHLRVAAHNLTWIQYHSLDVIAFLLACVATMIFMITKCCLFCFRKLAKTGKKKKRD
Sequence of UGT2B7 (P16662 24-529): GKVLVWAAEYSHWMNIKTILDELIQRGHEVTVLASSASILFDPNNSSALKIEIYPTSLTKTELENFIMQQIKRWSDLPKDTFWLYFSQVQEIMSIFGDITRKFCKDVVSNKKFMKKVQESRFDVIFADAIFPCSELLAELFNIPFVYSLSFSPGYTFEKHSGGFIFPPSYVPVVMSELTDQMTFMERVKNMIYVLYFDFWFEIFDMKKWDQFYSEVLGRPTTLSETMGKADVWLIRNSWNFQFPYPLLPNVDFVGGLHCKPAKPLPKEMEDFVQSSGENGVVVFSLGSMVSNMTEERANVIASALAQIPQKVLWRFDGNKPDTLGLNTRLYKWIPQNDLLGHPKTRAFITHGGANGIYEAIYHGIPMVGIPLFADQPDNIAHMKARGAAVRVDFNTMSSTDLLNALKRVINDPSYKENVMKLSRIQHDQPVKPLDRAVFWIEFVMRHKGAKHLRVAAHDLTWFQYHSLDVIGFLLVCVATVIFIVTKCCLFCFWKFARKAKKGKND
Sequence of CYP2C9 (P11712 whole entry): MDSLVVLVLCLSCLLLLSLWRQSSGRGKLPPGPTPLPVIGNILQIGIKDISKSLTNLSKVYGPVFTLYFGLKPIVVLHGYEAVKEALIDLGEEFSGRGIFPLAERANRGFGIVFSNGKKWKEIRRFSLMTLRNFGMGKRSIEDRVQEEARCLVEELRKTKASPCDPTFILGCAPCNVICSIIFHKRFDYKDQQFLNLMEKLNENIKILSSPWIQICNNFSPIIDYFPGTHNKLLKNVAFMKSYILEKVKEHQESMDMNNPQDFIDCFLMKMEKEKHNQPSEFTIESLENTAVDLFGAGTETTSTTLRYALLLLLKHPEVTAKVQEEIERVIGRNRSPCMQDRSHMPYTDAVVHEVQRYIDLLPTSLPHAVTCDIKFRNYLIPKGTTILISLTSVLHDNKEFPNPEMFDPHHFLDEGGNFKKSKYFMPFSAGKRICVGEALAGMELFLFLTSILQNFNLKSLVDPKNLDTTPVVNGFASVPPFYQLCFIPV
Sequence of UGT2B4 (P06133 24-528): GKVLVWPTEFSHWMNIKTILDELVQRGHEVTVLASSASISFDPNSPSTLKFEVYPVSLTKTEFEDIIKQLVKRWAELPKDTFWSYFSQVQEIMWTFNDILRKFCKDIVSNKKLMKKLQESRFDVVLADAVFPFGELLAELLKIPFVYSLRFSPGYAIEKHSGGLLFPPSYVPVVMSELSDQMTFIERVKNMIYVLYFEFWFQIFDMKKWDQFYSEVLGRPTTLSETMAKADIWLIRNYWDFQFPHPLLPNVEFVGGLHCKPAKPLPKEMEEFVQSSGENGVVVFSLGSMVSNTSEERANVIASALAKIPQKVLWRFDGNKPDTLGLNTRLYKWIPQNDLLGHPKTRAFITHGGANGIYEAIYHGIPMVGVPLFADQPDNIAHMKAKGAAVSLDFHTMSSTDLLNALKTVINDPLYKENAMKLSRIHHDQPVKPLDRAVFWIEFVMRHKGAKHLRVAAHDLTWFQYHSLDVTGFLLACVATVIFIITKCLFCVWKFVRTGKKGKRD
Sequence of UGT2B15 (P54855 24-530): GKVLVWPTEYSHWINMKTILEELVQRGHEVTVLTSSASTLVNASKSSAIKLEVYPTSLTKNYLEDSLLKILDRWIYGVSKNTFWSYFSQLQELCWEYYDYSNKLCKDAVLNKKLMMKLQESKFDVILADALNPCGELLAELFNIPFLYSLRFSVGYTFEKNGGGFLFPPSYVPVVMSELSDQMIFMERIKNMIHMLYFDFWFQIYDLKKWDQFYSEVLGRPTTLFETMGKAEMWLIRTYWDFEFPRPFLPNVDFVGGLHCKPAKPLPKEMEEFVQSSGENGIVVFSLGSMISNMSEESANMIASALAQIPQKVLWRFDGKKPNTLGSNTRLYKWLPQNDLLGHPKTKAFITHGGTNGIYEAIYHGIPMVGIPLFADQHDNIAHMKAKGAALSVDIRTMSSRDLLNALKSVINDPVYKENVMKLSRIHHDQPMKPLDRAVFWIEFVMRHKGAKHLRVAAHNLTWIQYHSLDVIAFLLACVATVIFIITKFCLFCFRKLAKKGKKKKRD
Sequence of CYP2E1 (P05181 whole entry): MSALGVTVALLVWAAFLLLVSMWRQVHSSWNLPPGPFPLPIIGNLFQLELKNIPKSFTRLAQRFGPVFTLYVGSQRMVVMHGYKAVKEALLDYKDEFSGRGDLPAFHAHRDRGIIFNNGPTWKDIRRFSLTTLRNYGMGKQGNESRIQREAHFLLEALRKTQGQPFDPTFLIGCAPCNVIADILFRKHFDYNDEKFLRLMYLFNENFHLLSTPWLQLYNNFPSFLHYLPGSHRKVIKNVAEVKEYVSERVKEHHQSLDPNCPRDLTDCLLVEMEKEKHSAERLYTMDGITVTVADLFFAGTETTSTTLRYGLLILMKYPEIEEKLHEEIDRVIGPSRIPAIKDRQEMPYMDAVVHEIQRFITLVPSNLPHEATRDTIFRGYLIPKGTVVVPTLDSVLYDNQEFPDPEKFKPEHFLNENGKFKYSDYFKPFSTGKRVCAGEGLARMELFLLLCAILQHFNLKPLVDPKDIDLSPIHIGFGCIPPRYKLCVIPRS
Sequence of CYP2C19 (P33261 whole entry): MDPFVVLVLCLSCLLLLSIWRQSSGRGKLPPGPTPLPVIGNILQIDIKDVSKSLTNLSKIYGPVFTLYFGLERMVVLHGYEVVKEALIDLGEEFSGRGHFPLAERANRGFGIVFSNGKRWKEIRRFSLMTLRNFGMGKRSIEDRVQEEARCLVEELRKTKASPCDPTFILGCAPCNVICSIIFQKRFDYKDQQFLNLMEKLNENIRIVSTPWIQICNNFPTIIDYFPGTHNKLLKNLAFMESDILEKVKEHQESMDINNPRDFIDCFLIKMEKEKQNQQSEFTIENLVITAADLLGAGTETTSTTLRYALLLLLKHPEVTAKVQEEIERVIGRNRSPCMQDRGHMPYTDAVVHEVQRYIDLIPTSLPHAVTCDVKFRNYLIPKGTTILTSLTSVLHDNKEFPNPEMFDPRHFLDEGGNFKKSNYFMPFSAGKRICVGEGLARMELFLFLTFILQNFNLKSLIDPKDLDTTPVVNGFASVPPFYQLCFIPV
Sequence of UGT1A9 (O60656 26-530): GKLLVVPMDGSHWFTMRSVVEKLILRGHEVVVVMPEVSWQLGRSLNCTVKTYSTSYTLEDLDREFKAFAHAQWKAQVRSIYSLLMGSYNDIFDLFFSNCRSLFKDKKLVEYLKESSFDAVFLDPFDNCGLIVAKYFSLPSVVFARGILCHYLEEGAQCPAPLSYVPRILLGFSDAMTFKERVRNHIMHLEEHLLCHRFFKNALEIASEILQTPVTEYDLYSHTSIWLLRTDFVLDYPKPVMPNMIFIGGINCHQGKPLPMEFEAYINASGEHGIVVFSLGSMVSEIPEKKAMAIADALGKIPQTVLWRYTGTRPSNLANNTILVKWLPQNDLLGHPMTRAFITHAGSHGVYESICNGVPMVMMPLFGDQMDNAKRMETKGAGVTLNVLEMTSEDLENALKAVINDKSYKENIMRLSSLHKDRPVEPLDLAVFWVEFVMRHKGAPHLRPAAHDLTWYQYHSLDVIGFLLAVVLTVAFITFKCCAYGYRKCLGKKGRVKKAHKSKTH
Sequence of UGT1A1 (P22309 26-533): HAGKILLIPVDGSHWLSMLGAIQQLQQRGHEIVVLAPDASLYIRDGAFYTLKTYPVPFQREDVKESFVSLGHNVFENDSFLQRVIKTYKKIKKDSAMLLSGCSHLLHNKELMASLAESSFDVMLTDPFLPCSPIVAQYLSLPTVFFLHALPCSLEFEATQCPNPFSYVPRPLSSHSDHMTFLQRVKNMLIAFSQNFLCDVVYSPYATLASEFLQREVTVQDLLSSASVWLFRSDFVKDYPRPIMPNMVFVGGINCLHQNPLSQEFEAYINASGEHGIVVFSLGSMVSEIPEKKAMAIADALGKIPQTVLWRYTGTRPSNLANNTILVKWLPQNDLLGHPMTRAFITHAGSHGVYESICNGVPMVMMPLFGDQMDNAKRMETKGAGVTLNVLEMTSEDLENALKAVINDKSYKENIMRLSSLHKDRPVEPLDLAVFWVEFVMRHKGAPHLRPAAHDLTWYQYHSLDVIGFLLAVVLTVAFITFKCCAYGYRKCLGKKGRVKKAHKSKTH

As to `COc1ccncc1C#CCN` [Compound K, 3-(4-methoxypyridin-3-yl)prop-2-yn-1-amine], the “IC50 ratio UGT2B7/UGT2B10” value in data set [1] came out at 13. For the same compound, the concentration for half-maximal inhibition (IC50) was 3.4 µM in data set [2] and less than 10 µM in [12]. Moreover, the “IC50 ratio UGT1A4/UGT2B10” value in data set [3] stood at 7. For the same compound, in data set [4], the selectivity ratio at 15 min is less than 5. In addition, the “IC50 ratio CYP2C8/CYP2A6” value in data set [5] is recorded as greater than 15. Besides, in [6], the “IC50 ratio UGT1A1/UGT2B10” value was 4. Further, in data set [7], the “IC50 ratio UGT2B4/UGT2B10” value was 3.5. For the same compound, the “IC50 ratio CYP2B6/CYP2A6” value in [8] is reported as 3.2. Moreover, the “IC50 ratio UGT2B17/UGT2B10” value in data set [9] was determined as 26. Besides, the “IC50 ratio UGT2B15/UGT2B10” value in [10] turned out to be 30. For the same compound, in data set [11], the “IC50 ratio CYP2C9/CYP2A6” value stood at 8.2. Moreover, in data set [13], the “IC50 ratio CYP2E1/CYP2A6” value is reported as 5.3. Further, the “IC50 ratio UGT1A9/UGT2B10” value in [14] was 5. For the same compound, the “IC50 ratio UGT1A6/UGT2B10” value in data set [15] came to 29. Moreover, the “IC50 ratio CYP2C19/CYP2A6” value in [16] came to 2.7.

A word on the IC50: it is the concentration at which inhibition is half-maximal.

These data come from patent publication US20210276987A1, “PHARMACEUTICAL AGENTS FOR USE IN SMOKING AND TOBACCO CESSATION” (Washington State University, priority 2018, published 2021).
